Data published in patent publication US11096985B2, “Antimicrobial peptides, their variants and uses” (priority 2015, dated 2021).

What was measured:
Assay type in all cases: cell-based
[1] = system: clinical strains of Serratia marcescens; experiment: MIC, clinical strains of Serratia marcescens; parameters: unit: µg/mL; settings: microdilution, Muller Hinton broth-cation adjusted, 0.02% BSA, 0.2% acetic acid
Procedure, shortened: (§1)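 Broth microdilution in Mueller Hinton broth, inoculum adjusted to 5.0×10^5 cfu/ml, peptide tested at 0.125 to 128 μg/ml and incubated at 37° C. for 20 to 24 hours. MIC was the lowest concentration with no visible growth. Yeasts were tested in potato dextrose broth.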

[2] = system: clinical strains of Escherichia coli; experiment: MIC, clinical strains of E. coli; parameters: unit: μg/ml; settings: microdilution, Muller Hinton broth-cation adjusted, 0.02% BSA, 0.2% acetic acid
Procedure, shortened: as §1

[3] = system: clinical strains of Acinetobacter johnsonii; settings: Acinetobacter johnsonii clinical strain 1; microdilution, Muller Hinton broth-cation adjusted, 0.02% BSA, 0.2% acetic acid
Description: (§2) Minimum inhibition concentrations (MICs) were determined against Escherichia coli (ATCC 25922), Staphylococcus aureus (ATCC 25923), Klebsiella pneumoniae (ATCC 10031) and Pseudomonas aeruginosa (ATCC 27853). Also clinical strains of E. coli, K. pneumoniae, E. cloacae, P. aeruginosa, Serratia marcescens, Proteus mirabilis, S. pneumoniae, Acinetobacter baumannii, A. johnsonii and S. aureus were used for MICs assays. Additionally, clinical strains of yeast including Candida albicans, C. glabrata, C. parapsilosis and C. quillermondiae were used. The susceptibility of these microorganisms to Chain peptides were determined using micro broth dilution assay. Colonies of the respective microorganism from Muller Hinton (MH) agar plates incubated overnight were suspended in MH broth media and final concentration of microorganism was adjusted to 5.0×10^5 cfu/ml. An aliquot of 10 μl of each Chain peptide, or gentamicin, tetracycline as reference antibiotics were added in differing concentrations along with 90 μl of bacterial suspension to 96 well polypropylene plates and incubated at 37° C. for 20 to 24 hours. Concentrations of Chain peptides and reference antibiotics ranged from 0.125 to 128 μg/ml and the MICs were recorded as the lowest concentration with no visual growth of bacteria. Similarly, antifungal MICs were tested in Potato dextrose broth.
(§3) Clinical strains of yeasts including Candida albicans, C. glabrata, C. parapsilosis and C. quillermondiae were also tested with the 12 Chain peptides. The minimum inhibitory concentration (MICs) varied between these peptides and are presented in Tables 4a, 4b, 4c and 5a, 5b, 5c. Peptides Chain 105, 201 and 308 are broad spectrum antimicrobials with MICs between 0.5-32 μg/ml against all the bacteria and yeasts tested, except Serratia marcescens and Proteus mirabilis, against which the MICs were between 64-128 μg/ml. Peptide Chain 306 has narrow spectrum activity against E.coli at 1 μg/ml and for the rest of the bacterial strains at >32 μg/ml (FIG. 10).

[4] = system: clinical strains of Streptococcus pneumoniae; experiment: MIC, clinical strains of Streptococcus pneumoniae; parameters: unit: µg/mL; settings: microdilution, Muller Hinton broth-cation adjusted, 0.02% BSA, 0.2% acetic acid
Procedure, shortened: as §1

[5] = system: clinical strains of Acinetobacter baumannii; experiment: MIC, clinical strains of Acinetobacter baumannii; settings: microdilution, Muller Hinton broth-cation adjusted, 0.02% BSA, 0.2% acetic acid
Description: as §2, §3

[6] = system: clinical strains of Staphylococcus aureus; experiment: MIC, clinical strains of S. aureus; parameters: unit: μg/ml; settings: microdilution, Muller Hinton broth-cation adjusted, 0.02% BSA, 0.2% acetic acid
Procedure, shortened: as §1

[7] = system: clinical strains of Proteus mirabilis; experiment: MIC, clinical strains of Proteus mirabilis; parameters: unit: µg/mL; settings: microdilution, Muller Hinton broth-cation adjusted, 0.02% BSA, 0.2% acetic acid
Procedure, shortened: as §1

[8] = system: clinical strains of Pseudomonas aeruginosa; experiment: MIC, clinical strains of P. aeruginosa; parameters: unit: μg/ml; settings: microdilution, Muller Hinton broth-cation adjusted, 0.02% BSA, 0.2% acetic acid
Procedure, shortened: as §1

[9] = system: clinical strains of Klebsiella pneumoniae; experiment: MIC, clinical strains of K. pneumoniae; parameters: unit: μg/ml; settings: microdilution, Muller Hinton broth-cation adjusted, 0.02% BSA, 0.2% acetic acid
Procedure, shortened: as §1

[10] = system: clinical strains of Enterobacter cloacae; experiment: MIC, clinical strains of Enterobacter cloacae; parameters: unit: μg/ml; settings: microdilution, Muller Hinton broth-cation adjusted, 0.02% BSA, 0.2% acetic acid
Procedure, shortened: as §1

## Gentamicin [reference compound]
[1]; Serratia marcescens clinical strain 1
  Minimum inhibitory concentration: 1
[1]; Serratia marcescens clinical strain 2
  Minimum inhibitory concentration: 2
[1]; Serratia marcescens clinical strain 3
  Minimum inhibitory concentration: 1
[1]; Serratia marcescens clinical strain 4
  Minimum inhibitory concentration: 1
[1]; Serratia marcescens clinical strain 5
  Minimum inhibitory concentration: 1
[2]; Escherichia coli clinical strain 1
  Minimum inhibitory concentration: 0.5
[2]; Escherichia coli clinical strain 2
  Minimum inhibitory concentration: 0.5
[2]; Escherichia coli clinical strain 3
  Minimum inhibitory concentration: 1
[2]; Escherichia coli clinical strain 4
  Minimum inhibitory concentration: 1
[2]; Escherichia coli clinical strain 5
  Minimum inhibitory concentration: 1
[3]
  Minimum inhibitory concentration: 0.25
[4]; Streptococcus pneumoniae clinical strain 1
  Minimum inhibitory concentration: 2
[4]; Streptococcus pneumoniae clinical strain 2
  Minimum inhibitory concentration: 2
[4]; Streptococcus pneumoniae clinical strain 3
  Minimum inhibitory concentration: 2
[4]; Streptococcus pneumoniae clinical strain 4
  Minimum inhibitory concentration: 2
[4]; Streptococcus pneumoniae clinical strain 5
  Minimum inhibitory concentration: 1
[5]; Acinetobacter baumannii clinical strain 1
  Minimum inhibitory concentration: 0.5
[5]; Acinetobacter baumannii clinical strain 2
  Minimum inhibitory concentration: 0.25
[5]; Acinetobacter baumannii clinical strain 3
  Minimum inhibitory concentration: 0.5
[5]; Acinetobacter baumannii clinical strain 4
  Minimum inhibitory concentration: 0.5
[5]; Acinetobacter baumannii clinical strain 5
  Minimum inhibitory concentration: 0.25
[6]; Staphylococcus aureus clinical strain 1
  Minimum inhibitory concentration: 0.5
[6]; Staphylococcus aureus clinical strain 2
  Minimum inhibitory concentration: 0.5
[6]; Staphylococcus aureus clinical strain 3
  Minimum inhibitory concentration: 0.5
[6]; Staphylococcus aureus clinical strain 4
  Minimum inhibitory concentration: 0.5
[6]; Staphylococcus aureus clinical strain 5
  Minimum inhibitory concentration: 0.5
[7]; Proteus mirabilis clinical strain 1
  Minimum inhibitory concentration: 2
[7]; Proteus mirabilis clinical strain 2
  Minimum inhibitory concentration: 2
[7]; Proteus mirabilis clinical strain 3
  Minimum inhibitory concentration: >128
[7]; Proteus mirabilis clinical strain 4
  Minimum inhibitory concentration: 8
[7]; Proteus mirabilis clinical strain 5
  Minimum inhibitory concentration: >128
[8]; Pseudomonas aeruginosa clinical strain 1
  Minimum inhibitory concentration: 1
[8]; Pseudomonas aeruginosa clinical strain 2
  Minimum inhibitory concentration: 0.5
[8]; Pseudomonas aeruginosa clinical strain 3
  Minimum inhibitory concentration: 0.5
[8]; Pseudomonas aeruginosa clinical strain 4
  Minimum inhibitory concentration: 0.5
[8]; Pseudomonas aeruginosa clinical strain 5
  Minimum inhibitory concentration: 0.25
[9]; Klebsiella pneumoniae clinical strain 1
  Minimum inhibitory concentration: 2
[9]; Klebsiella pneumoniae clinical strain 2
  Minimum inhibitory concentration: 0.25
[9]; Klebsiella pneumoniae clinical strain 3
  Minimum inhibitory concentration: 2
[9]; Klebsiella pneumoniae clinical strain 4
  Minimum inhibitory concentration: 2
[9]; Klebsiella pneumoniae clinical strain 5
  Minimum inhibitory concentration: 4
[10]; Enterobacter cloacae clinical strain 1
  Minimum inhibitory concentration: 0.25
[10]; Enterobacter cloacae clinical strain 2
  Minimum inhibitory concentration: 0.25
[10]; Enterobacter cloacae clinical strain 3
  Minimum inhibitory concentration: 0.25
[10]; Enterobacter cloacae clinical strain 4
  Minimum inhibitory concentration: 0.25
[10]; Enterobacter cloacae clinical strain 5
  Minimum inhibitory concentration: 0.25
